Reference: US20150105252A1, “SUBSTITUTED PYRAZOLES AS HERBICIDES” (E I DU PONT DE NEMOURS AND COMPANY, priority 2013, published 2015)

Assays:
barnyardgrass [1] = test: Test A preemergence; format: in vivo, Echinochloa crus-galli; conditions: preemergence
How it was run: (§1)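 Pre- and postemergence greenhouse test; loam+sand; cpd in non-phytotox. solvent/surfactant; post at 1–2 leaf, 2–10 cm; visual score ~10 d, 0 = none, 100 = complete control.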

pigweed [2] = test: Test A postemergence; format: in vivo, Amaranthus retroflexus
How it was run: as §1

corn [3] = test: Test A postemergence; format: in vivo, Zea mays
How it was run: as §1

foxtail, giant [4] = test: Test A preemergence; format: in vivo, Setaria faberii; conditions: preemergence; for Foxtail, Giant plant response rating (0 to 100 scale): visual injury approx. 10 days after treatment
How it was run: as §1

barnyardgrass [5] = test: Test B flood; format: in vivo, Echinochloa crus-galli; conditions: 250 g ai/ha, visual rating on 0 to 100 scale (0 no effect, 100 complete control), 13 to 15 days
How it was run: (§2)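 Each compound is applied to the floodwater of pots holding 2-leaf seedlings, water standing 3 cm over the soil throughout. Plants stay in a greenhouse 13 to 15 days before visual scoring against controls from 0 (no effect) to 100 (complete control).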

crabgrass, large [6] = test: Test A preemergence; format: in vivo, Digitaria sanguinalis; conditions: preemergence; for Crabgrass, Large plant response rating (0 to 100 scale): visual injury approx. 10 days after treatment
How it was run: as §1

ducksalad = test: Test B flood; format: in vivo, Heteranthera limosa; conditions: 250 g ai/ha, visual rating on 0 to 100 scale (0 no effect, 100 complete control), 13 to 15 days
How it was run: as §2

morningglory [7] = test: Test A postemergence; format: in vivo, Ipomoea spp.
How it was run: as §1

wheat [8] = test: Test A postemergence; format: in vivo, Triticum aestivum
How it was run: as §1

crabgrass, large [9] = test: Test A postemergence; format: in vivo, Digitaria sanguinalis
How it was run: as §1

foxtail, giant [10] = test: Test A postemergence; format: in vivo, Setaria faberii
How it was run: as §1

velvetleaf [11] = test: Test A postemergence; format: in vivo, Abutilon theophrasti
How it was run: as §1

wheat [12] = test: Test A preemergence; format: in vivo, Triticum aestivum; conditions: preemergence; for Wheat plant response rating (0 to 100 scale): visual injury approx. 10 days after treatment
How it was run: as §1

sedge, umbrella = test: Test B flood; format: in vivo, Cyperus difformis; conditions: 250 g ai/ha, visual rating on 0 to 100 scale (0 no effect, 100 complete control), 13 to 15 days
How it was run: as §2

barnyardgrass [13] = test: Test A postemergence; format: in vivo, Echinochloa crus-galli
How it was run: as §1

corn [14] = test: Test A preemergence; format: in vivo, Zea mays; conditions: preemergence; for Corn plant response rating (0 to 100 scale): visual injury approx. 10 days after treatment
How it was run: as §1

rice = test: Test B flood; format: in vivo, Oryza sativa; conditions: 250 g ai/ha, visual rating on 0 to 100 scale (0 no effect, 100 complete control), 13 to 15 days
How it was run: as §2

morningglory [15] = test: Test A preemergence; format: in vivo, Ipomoea spp.; conditions: preemergence; for Morningglory plant response rating (0 to 100 scale): visual injury approx. 10 days after treatment
How it was run: as §1

pigweed [16] = test: Test A preemergence; format: in vivo, Amaranthus retroflexus; conditions: preemergence; for Pigweed plant response rating (0 to 100 scale): visual injury approx. 10 days after treatment
How it was run: as §1

velvetleaf [17] = test: Test A preemergence; format: in vivo, Abutilon theophrasti; conditions: preemergence; for Velvetleaf plant response rating (0 to 100 scale): visual injury approx. 10 days after treatment
How it was run: as §1

[18] = 125 g ai/ha, visual injury, 0 to 100 scale, approx. 10 days
[19] = 500 g ai/ha, visual injury after approx. 10 days, 0 to 100 scale (0 no effect, 100 complete control)
[20] = Postemergence, 500 g ai/ha, 0 to 100 scale (0 no effect, 100 complete control)
[21] = postemergence, 125 g ai/ha, about 10 days, visual rating on 0 to 100 scale (0 no effect, 100 complete control)

Row | SMILES | Barnyardgrass plant response rating (barnyardgrass [1]; [18]) | Barnyardgrass plant response rating (barnyardgrass [1]; [19]) | Pigweed plant response rating (pigweed [2]; [20]) | Pigweed plant response rating (pigweed [2]; [21]) | Corn plant response rating (corn [3]; [20]) | Corn plant response rating (corn [3]; [21]) | Foxtail, Giant plant response rating (foxtail, giant [4]; [19]) | Plant response rating, Barnyardgrass (barnyardgrass [5]) | Crabgrass, Large plant response rating (crabgrass, large [6]; [19]) | Plant response rating, Ducksalad (ducksalad) | Morningglory plant response rating (morningglory [7]; [20]) | Morningglory plant response rating (morningglory [7]; [21]) | Wheat plant response rating (wheat [8]; [20]) | Wheat plant response rating (wheat [8]; [21]) | Crabgrass, Large plant response rating (crabgrass, large [9]; [20]) | Crabgrass, Large plant response rating (crabgrass, large [9]; [21]) | Foxtail, Giant plant response rating (foxtail, giant [10]; [20]) | Foxtail, Giant plant response rating (foxtail, giant [10]; [21]) | Velvetleaf plant response rating (velvetleaf [11]; [20]) | Velvetleaf plant response rating (velvetleaf [11]; [21]) | also measured
1 | CCONC(=O)c1cc(CC)n(Cc2cc(C(F)(F)F)nn2CC)n1 [Compound 121] | 70 | 100 | 100 | 90 | 70 | 40 | 80 | 15 | 100 | 75 | 100 | 90 | 60 | 0 | 90 | 70 | 80 | 50 | 100 | 60 | Foxtail, Giant plant response rating (foxtail, giant [4]; [18]): 60; Crabgrass, Large plant response rating (crabgrass, large [6]; [18]): 90; Wheat plant response rating (wheat [12]; [18]): 10; Wheat plant response rating (wheat [12]; [19]): 80; Plant response rating, Sedge, Umbrella (sedge, umbrella): 75; Barnyardgrass plant response rating (barnyardgrass [13]; [20]): 90; Barnyardgrass plant response rating (barnyardgrass [13]; [21]): 90; Corn plant response rating (corn [14]; [18]): 30; Corn plant response rating (corn [14]; [19]): 90; Plant response rating, Rice (rice): 20; Morningglory plant response rating (morningglory [15]; [18]): 100; Morningglory plant response rating (morningglory [15]; [19]): 100; Pigweed plant response rating (pigweed [16]; [18]): 100; Pigweed plant response rating (pigweed [16]; [19]): 100; Velvetleaf plant response rating (velvetleaf [17]; [18]): 20; Velvetleaf plant response rating (velvetleaf [17]; [19]): 100
2 | CCc1cc(C(=O)NCC(F)(F)F)nn1Cc1nnc(C(F)(F)F)o1 [Compound 146] | 0 | 90 | 90 | 60 | 0 | 0 | 90 | 0 | 100 | 0 | 80 | 20 | 0 | 0 | 80 | 10 | 20 | 0 | 20 | 10 | Foxtail, Giant plant response rating (0 to 100 scale) (foxtail, giant [4]; 125 g ai/ha): 10; Crabgrass, Large plant response rating (0 to 100 scale) (crabgrass, large [6]; 125 g ai/ha): 80; Wheat plant response rating (0 to 100 scale) (wheat [12]; 125 g ai/ha): 0; Wheat plant response rating (wheat [12]; [19]): 10; Plant response rating, Sedge, Umbrella (sedge, umbrella): 0; Barnyardgrass plant response rating (barnyardgrass [13]; [20]): 10; Barnyardgrass plant response rating (barnyardgrass [13]; [21]): 0; Corn plant response rating (0 to 100 scale) (corn [14]; 125 g ai/ha): 0; Plant response rating, Rice (rice): 0; Morningglory plant response rating (0 to 100 scale) (morningglory [15]; 125 g ai/ha): 20; Morningglory plant response rating (morningglory [15]; [19]): 100; Pigweed plant response rating (0 to 100 scale) (pigweed [16]; 125 g ai/ha): 100; Pigweed plant response rating (pigweed [16]; [19]): 100; Velvetleaf plant response rating (0 to 100 scale) (velvetleaf [17]; 125 g ai/ha): 10; Velvetleaf plant response rating (velvetleaf [17]; [19]): 60
3 | CCCCc1cc(C(=O)NCC(F)(F)F)nn1Cc1ccnc(C(F)(F)F)c1 [Compound 148] | 10 | 40 | 100 | 90 | 40 | 10 | 90 | 0 | 100 | 30 | 90 | 80 | 20 | 0 | 50 | 20 | 40 | 10 | 60 | 20 | Foxtail, Giant plant response rating (0 to 100 scale) (foxtail, giant [4]; 125 g ai/ha): 10; Crabgrass, Large plant response rating (0 to 100 scale) (crabgrass, large [6]; 125 g ai/ha): 50; Wheat plant response rating (0 to 100 scale) (wheat [12]; 125 g ai/ha): 0; Wheat plant response rating (wheat [12]; [19]): 0; Plant response rating, Sedge, Umbrella (sedge, umbrella): 40; Barnyardgrass plant response rating (barnyardgrass [13]; [20]): 40; Barnyardgrass plant response rating (barnyardgrass [13]; [21]): 10; Corn plant response rating (0 to 100 scale) (corn [14]; 125 g ai/ha): 0; Corn plant response rating (corn [14]; [19]): 0; Plant response rating, Rice (rice): 15; Morningglory plant response rating (0 to 100 scale) (morningglory [15]; 125 g ai/ha): 0; Morningglory plant response rating (morningglory [15]; [19]): 30; Pigweed plant response rating (0 to 100 scale) (pigweed [16]; 125 g ai/ha): 100; Pigweed plant response rating (pigweed [16]; [19]): 100; Velvetleaf plant response rating (0 to 100 scale) (velvetleaf [17]; 125 g ai/ha): 0; Velvetleaf plant response rating (velvetleaf [17]; [19]): 20
4 | CCCc1cc(C(=O)Nc2ccc(F)cc2)nn1Cc1cc(C(F)(F)F)nn1C [Compound 150] | 0 | 0 | 80 | 30 | 10 | 0 | 20 | 0 | 20 | 0 | 30 | 30 | 0 | 0 | 10 | 10 | 10 | 0 | 10 | 10 | Foxtail, Giant plant response rating (0 to 100 scale) (foxtail, giant [4]; 125 g ai/ha): 0; Crabgrass, Large plant response rating (0 to 100 scale) (crabgrass, large [6]; 125 g ai/ha): 0; Wheat plant response rating (0 to 100 scale) (wheat [12]; 125 g ai/ha): 0; Wheat plant response rating (wheat [12]; [19]): 0; Plant response rating, Sedge, Umbrella (sedge, umbrella): 65; Barnyardgrass plant response rating (barnyardgrass [13]; [20]): 20; Barnyardgrass plant response rating (barnyardgrass [13]; [21]): 0; Corn plant response rating (0 to 100 scale) (corn [14]; 125 g ai/ha): 0; Corn plant response rating (corn [14]; [19]): 0; Plant response rating, Rice (rice): 15; Morningglory plant response rating (0 to 100 scale) (morningglory [15]; 125 g ai/ha): 0; Morningglory plant response rating (morningglory [15]; [19]): 0; Pigweed plant response rating (0 to 100 scale) (pigweed [16]; 125 g ai/ha): 50; Pigweed plant response rating (pigweed [16]; [19]): 100; Velvetleaf plant response rating (0 to 100 scale) (velvetleaf [17]; 125 g ai/ha): 0; Velvetleaf plant response rating (velvetleaf [17]; [19]): 0
